Results: PubChem BioAssay (NCI)
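Results reflect a 48-hour exposure of cells in 96-well plates to compound at five concentrations. The concentration for 50% growth inhibition is given as GI50. TGI is the concentration that stops growth completely.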

Legend:
Experiment in all cases: NCI tumour cell line growth inhibition, 48 h; in the data active means GI50 below about 0.43 µM; inactive means the rest
[1] = system: 786-0 renal
[2] = system: A498 renal
[3] = system: A549 NSCLC
[4] = system: ACHN renal
[5] = system: BT-549 breast
[6] = system: CAKI-1 renal
[7] = system: CCRF-CEM leukemia
[8] = system: COLO 205 colon
[9] = system: DU-145 prostate
[10] = system: EKVX NSCLC
[11] = system: HCC-2998 colon
[12] = system: HCT-116 colon
[13] = system: HCT-15 colon
[14] = system: HL-60(TB) leukemia
[15] = system: HOP-62 NSCLC
[16] = system: HOP-92 NSCLC
[17] = system: HS 578T breast
[18] = system: HT29 colon
[19] = system: IGROV1 ovarian
[20] = system: K-562 leukemia
[21] = system: KM12 colon
[22] = system: LOX IMVI melanoma
[23] = system: M14 melanoma
[24] = system: MALME-3M melanoma
[25] = system: MCF7 breast
[26] = system: MDA-MB-435
[27] = system: MDA-MB-468 breast
[28] = system: MOLT-4 leukemia
[29] = system: NCI-H226 lung
[30] = system: NCI-H23 lung
[31] = system: NCI-H460 lung
[32] = system: NCI-H522 lung
[33] = system: NCI/ADR-RES ovarian
[34] = system: OVCAR-3 ovarian
[35] = system: OVCAR-4 ovarian
[36] = system: OVCAR-5 ovarian
[37] = system: OVCAR-8 ovarian
[38] = system: PC-3 prostate
[39] = system: RPMI-8226 leukemia
[40] = system: RXF 393 renal
[41] = system: SF-268 CNS
[42] = system: SF-295 CNS
[43] = system: SF-539 CNS
[44] = system: SK-MEL-2 melanoma
[45] = system: SK-MEL-5 melanoma
[46] = system: SK-OV-3 ovarian
[47] = system: SN12C renal
[48] = system: SNB-19 CNS
[49] = system: SNB-75 CNS
[50] = system: SW-620 colon
[51] = system: T-47D breast
[52] = system: TK-10 renal
[53] = system: U251 CNS
[54] = system: UACC-257 melanoma
[55] = system: UACC-62 melanoma

Clc1ccc(/C=N/Nc2ncnc3sc4c(c23)CCN(Cc2ccccc2)C4)cc1
78.4 µM: TGI [46]
54.9 µM: TGI [20]
42.7 µM: TGI [44]
32.5 µM: TGI [38]
7.66 µM: TGI [23]
7.52 µM: TGI [35]
41.2 µM: TGI [49]
14.8 µM: TGI [1]
25.5 µM: TGI [7]
> 100 µM: TGI [3] | TGI [4] | TGI [5] | TGI [6] | TGI [9] | TGI [10] | TGI [11] | TGI [17] | TGI [19] | TGI [21] | TGI [24] | TGI [26] | TGI [30] | TGI [32] | TGI [36] | TGI [41] | TGI [45] | TGI [47] | TGI [48] | TGI [51] | TGI [55]
34.5 µM: TGI [28]
18.2 µM: TGI [43]
13.7 µM: TGI [18]
7.41 µM: TGI [29]
9.74 µM: TGI [22]
4.88 µM: TGI [31]
15.8 µM: TGI [27]
6.7 µM: TGI [16]
76.9 µM: TGI [54]
26.6 µM: TGI [40]
31.9 µM: TGI [50]
10.4 µM: TGI [12]
84.9 µM: TGI [39]
12.9 µM: TGI [8]
16.6 µM: TGI [53]
3.99 µM: TGI [37]
25.2 µM: TGI [13] | TGI [15]
21.6 µM: TGI [42]
5.84 µM: TGI [33]
41.9 µM: TGI [52]
inactive: GI50 [1] 3.85 µM | GI50 [2] 25.8 µM | GI50 [3] 12.1 µM | GI50 [4] 15.8 µM | GI50 [5] 23.4 µM | GI50 [6] > 100 µM | GI50 [7] 3.51 µM | GI50 [8] 3.52 µM | GI50 [9] 5.67 µM | GI50 [10] 65.6 µM | GI50 [11] 10.7 µM | GI50 [12] 3.04 µM | GI50 [13] 4.04 µM | GI50 [14] 5.59 µM | GI50 [15] 4.8 µM | GI50 [16] 2.4 µM | GI50 [17] 6.33 µM | GI50 [18] 3.37 µM | GI50 [19] 20.1 µM | GI50 [20] 4.16 µM | GI50 [21] 11.9 µM | GI50 [22] 2.9 µM | GI50 [23] 2.65 µM | GI50 [24] 4.96 µM | GI50 [25] 2.98 µM | GI50 [26] 7.26 µM | GI50 [27] 3.72 µM | GI50 [28] 4.53 µM | GI50 [29] 2.31 µM | GI50 [30] 12 µM | GI50 [31] 2.26 µM | GI50 [32] 23.9 µM | GI50 [33] 2.34 µM | GI50 [34] 2.49 µM | GI50 [35] 2.76 µM | GI50 [36] 20.9 µM | GI50 [37] 1.95 µM | GI50 [38] 3.63 µM | GI50 [39] 5.39 µM | GI50 [40] 10.2 µM | GI50 [41] 8.38 µM | GI50 [42] 4.19 µM | GI50 [43] 4.1 µM | GI50 [44] 16 µM | GI50 [45] 18.6 µM | GI50 [46] 20.8 µM | GI50 [47] 9.09 µM | GI50 [48] 6.06 µM | GI50 [49] 3.21 µM | GI50 [50] 3.85 µM | GI50 [51] 22.5 µM | GI50 [52] 20.8 µM | GI50 [53] 4 µM | GI50 [54] 9.6 µM | GI50 [55] 30.5 µM
15 µM: TGI [25]
5.33 µM: TGI [34]
59.2 µM: TGI [2]
43 µM: TGI [14]
